Measurements taken from ChEMBL document CHEMBL1146841, “Discovery of thiochroman derivatives bearing a carboxy-containing side chain as orally active pure antiestrogens” (Bioorg Med Chem Lett, 2006).

Tests used:
[1] = test system: Mus musculus; test: Antagonist activity assessed as inhibition of estrogen-stimulated uterine weight gain in ovariectomized mouse at 10 mg/kg, po; format: functional
[2] = test system: Mus musculus; test: Antagonist activity assessed as inhibition of estrogen-stimulated uterine weight gain in ovariectomized mouse at 3 mg/kg, po; format: functional
[3] = molecular target: T1, Estrogen receptor (Homo sapiens) (UniProt P03372); test: Displacement of [3H]estradiol from human recombinant ERalpha relative to estradiol
T1 sequence (whole entry): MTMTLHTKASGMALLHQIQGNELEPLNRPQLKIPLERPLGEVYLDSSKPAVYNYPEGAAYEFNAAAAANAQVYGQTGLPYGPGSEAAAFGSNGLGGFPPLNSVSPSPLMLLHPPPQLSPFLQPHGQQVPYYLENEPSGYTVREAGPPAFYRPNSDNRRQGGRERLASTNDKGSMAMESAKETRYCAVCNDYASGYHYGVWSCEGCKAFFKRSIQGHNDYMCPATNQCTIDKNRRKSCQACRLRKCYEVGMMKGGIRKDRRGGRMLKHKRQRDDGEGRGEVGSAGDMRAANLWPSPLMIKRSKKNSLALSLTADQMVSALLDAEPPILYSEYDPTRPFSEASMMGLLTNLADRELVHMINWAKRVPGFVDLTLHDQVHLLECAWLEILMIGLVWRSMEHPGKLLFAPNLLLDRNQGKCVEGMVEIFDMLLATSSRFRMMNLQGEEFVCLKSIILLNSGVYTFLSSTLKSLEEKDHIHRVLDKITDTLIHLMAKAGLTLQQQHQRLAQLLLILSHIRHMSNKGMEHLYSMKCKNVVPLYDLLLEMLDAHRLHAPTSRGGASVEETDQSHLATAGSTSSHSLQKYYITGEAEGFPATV

[4] = test system: Mus musculus; test: Antagonist activity assessed as inhibition of estrogen-stimulated uterine weight gain in ovariectomized mouse at 30 mg/kg, po; format: functional
[5] = test system: Mus musculus; test: Antagonist activity assessed as inhibition of estrogen-stimulated uterine weight gain in ovariectomized mouse at 10 mg/kg, sc; format: functional; details: route subcutaneous
[6] = test system: Mus musculus; test: Antagonist activity assessed as inhibition of estrogen-stimulated uterine weight gain in ovariectomized mouse at 50 mg/kg, po; format: functional
[7] = test system: Mus musculus; test: Agonist activity assessed as increase in uterine weight in ovariectomized mouse at 10 mg/kg, sc; format: functional; details: route subcutaneous
[8] = Bioavailability in Sprague-Dawley rat; format: ADME, organism-based; details: in vivo
[9] = test system: Rattus norvegicus; test: AUC in Sprague-Dawley rat at 10 mg/kg, iv; format: ADME, organism-based, Plasma; parameters: dose 10 mg/kg, route intravenous; details: in vivo
[10] = AUC in duodenally dosed Sprague-Dawley rat peripheral blood at 10 mg/kg; format: ADME, organism-based; parameters: dose 10 mg/kg, route intraduodenal
[11] = test system: Rattus norvegicus; test: (§1) AUC in Sprague-Dawley rat at 20 mg/kg, po; format: ADME, organism-based, Plasma; parameters: dose 20 mg/kg, route oral; details: in vivo
[12] = AUC in duodenally dosed Sprague-Dawley rat portal vein at 10 mg/kg; format: ADME, organism-based; parameters: dose 10 mg/kg, route intraduodenal; details: portal vein plasma
[13] = as §1; format: ADME, organism-based, Plasma; parameters: dose 20 mg/kg, route oral; details: Sprague-Dawley, plasma

Compound | inhibition in vivo at 10 mg/kg [1] [%] | inhibition in vivo at 3 mg/kg [2] [%] | RBA [3] [%] | inhibition in vivo at 30 mg/kg [4] [%] | inhibition in vivo at 10 mg/kg [5] [%] | inhibition in vivo at 50 mg/kg [6] [%] | Activity [7] [%] | bioavailability [8] [%] | AUC [9] [ng·h/mL] | AUC [10] [ng·h/mL] | AUC [11] [ng·h/mL] | AUC [12] [ng·h/mL] | AUC [13] [ng·h/mL]
C[C@]1(c2ccc(O)cc2)CSc2cc(O)ccc2[C@H]1CCCCCCCCCC(CCCC(F)(F)C(F)(F)F)C(=O)O (some centres undefined) | 81 | 45 | 0.9 | – | – | – | – | – | – | – | – | – | –
C[C@]1(c2ccc(O)cc2)CSc2cc(O)ccc2[C@H]1CCCCCCCCC(CCC(F)(F)C(F)(F)C(F)(F)C(F)(F)F)C(=O)O (some centres undefined) | 93 | 63 | 0.6 | 96 | – | – | – | – | – | – | – | – | –
C[C@]1(c2ccc(O)cc2)COc2cc(O)ccc2[C@H]1CCCCCCCCC[S+]([O-])CCCC(F)(F)C(F)(F)F (some centres undefined) | 66 | – | 96 | – | 94 | 88 | 1 | – | – | – | – | – | –
C[C@]12CC[C@@H]3c4ccc(O)cc4C[C@@H](CCCCCCCCC[S+]([O-])CCCC(F)(F)C(F)(F)F)[C@H]3[C@@H]1CC[C@@H]2O (some centres undefined) [FULVESTRANT] | 54 | 29 | 138 | 72 | 95 | 86 | -1 | 16 | 5300 | 7 | 1670 | 56 | –
C[C@]1(c2ccc(O)cc2)CSc2cc(O)ccc2[C@H]1CCCCCCCCC(CCCCCC(F)(F)C(F)(F)F)C(=O)O (some centres undefined) | 86 | 52 | 0.8 | 94 | – | – | – | – | – | – | – | – | –
C[C@]1(c2ccc(O)cc2)CSc2cc(O)ccc2[C@H]1CCCCCCCCCNC(=O)NS(=O)(=O)CCCC(F)(F)C(F)(F)F | – | – | 1.2 | – | 33 | – | 8 | – | – | – | – | – | –
C[C@]1(c2ccc(O)cc2)CSc2cc(O)ccc2[C@H]1CCCCCCCCCCC(CCCC(F)(F)C(F)(F)F)C(=O)O (some centres undefined) | 62 | – | 0.2 | – | – | – | – | – | – | – | – | – | –
C[C@]1(c2ccc(O)cc2)CSc2cc(O)ccc2[C@H]1CCCCCCCC(CCCC(F)(F)C(F)(F)F)C(=O)O (some centres undefined) | 20 | – | 0.5 | – | – | – | – | – | – | – | – | – | –
C[C@]1(c2ccc(O)cc2)COc2cc(O)ccc2[C@H]1CCCCCCCCCNS(=O)(=O)NCCCC(F)(F)C(F)(F)F | 41 | – | 42 | – | 100 | 69 | 1 | – | – | – | – | – | –
C[C@]1(c2ccc(O)cc2)CSc2cc(O)ccc2[C@H]1CCCCCCCCC(CCCC(F)(F)C(F)(F)F)C(=O)O (some centres undefined) | 77 | 41 | 0.8 | 94 | 95 | – | 1 | 46 | 228000 | 2040 | 209000 | 2510 | –
C[C@]1(c2ccc(O)cc2)CSc2cc(O)ccc2[C@H]1CCCCCCCCCC(CCCCC(F)(F)C(F)(F)F)C(=O)O (some centres undefined) | 79 | 53 | 0.2 | 96 | – | – | – | – | – | – | – | – | –
C[C@]1(c2ccc(O)cc2)CSc2cc(O)ccc2[C@H]1CCCCCCCCC(CCCC(F)(F)C(F)(F)C(F)(F)C(F)(F)F)C(=O)O (some centres undefined) | 93 | 61 | 0.3 | 99 | – | – | – | – | – | – | – | – | –
COC(=O)C(CCCCCCCC[C@@H]1c2ccc(O)cc2SC[C@]1(C)c1ccc(O)cc1)CCCC(F)(F)C(F)(F)F (some centres undefined) | 40 | – | 7 | – | 52 | – | -1 | – | – | – | – | – | –
C[C@]1(c2ccc(O)cc2)CSc2cc(O)ccc2[C@H]1CCCCCCCCCC(CCC(F)(F)C(F)(F)C(F)(F)C(F)(F)F)C(=O)O (some centres undefined) | 85 | 38 | 0.3 | 99 | – | – | – | – | – | – | – | – | –
C[C@]1(c2ccc(O)cc2)CSc2cc(O)ccc2[C@H]1CCCCCCCCC(CCCCC(F)(F)C(F)(F)F)C(=O)O (some centres undefined) | 87 | 69 | 1.3 | 97 | – | – | – | – | – | – | – | – | –
C[C@]1(c2ccc(O)cc2)CSc2cc(O)ccc2[C@H]1CCCCCCCCCC(CCCC(F)(F)C(F)(F)C(F)(F)C(F)(F)F)C(=O)O (some centres undefined) | 86 | 55 | 0.4 | 100 | – | – | – | – | – | – | – | – | –
C[C@]1(c2ccc(O)cc2)COc2cc(O)ccc2[C@H]1CCCCCCCCCNC(=O)NCCCC(F)(F)C(F)(F)F | 1 | – | 57 | – | 77 | – | 10 | – | – | – | – | – | –
C[C@]1(c2ccc(O)cc2)CSc2cc(O)ccc2[C@H]1CCCCCCCCCNS(=O)(=O)CCCC(F)(F)C(F)(F)F | 31 | – | 52 | – | 99 | 73 | 3 | – | – | – | – | – | –
C[C@]1(c2ccc(O)cc2)CSc2cc(O)ccc2[C@H]1CCCCCCCCC[S+]([O-])CCCC(F)(F)C(F)(F)F (some centres undefined) | 51 | – | 200 | – | 101 | 94 | -2 | 22 | 8220 | 13 | – | 88 | 3590
